Common to all, as to format: cell-based, Helicobacter pylori
The test system of experiment [1] is H. pylori. Put plainly: Anti H. pylori screening by disc diffusion susceptibility assay. The note with it: for Inhibition zone diameter (score): 100 and 200 mg/disc (so in the source), 72 h; for Inhibition Zone Diameter (mm): spacer molecules. As for the experimental part: The discs were impregnated with […] of each of the compounds, dissolved either in ethanol or DMSO, and the zone of inhibition was measured after 72 h of growth under microaerophilic conditions at 37° C. Inhibition zone diameter ranging 10-20 mm was given a score of ^+, 20-30 mm as ^++ and that of >30 mm as ^+++, as obtained employing dose range of […]/disc. The detailed structural information of the molecules is provided under ‘Description of the Compounds’.
Methods and protocols for the determination of inhibition zone diameter are as stated under Experiment 1, and that of MIC values by microbroth dilution assay as in Experiment 3. ‘Nil’ means zone of inhibition below 10 mm.
The anti H. pylori activity of all 16 flavonoid molecules, 2 naturally isolated and 14 synthetic derivatives, was screened by disc diffusion sensitivity assay employing 2 clinical strains HP001 and HP002, and three standard strains ATCC® 700392, 43504 and 49503. A 0.5 mL inoculum (10^8 CFU/mL) for each bacterial strain tested was flooded on freshly prepared Brain Heart Infusion (BHI) agar plates supplemented with 7% FCS, 0.5% IsoVitalex and 0.0025% DENT® and the discs (5 mm diameter) containing different compounds or antibiotics (dissolved either in ethanol or DMSO) were placed on the agar surface. After incubation for 3 days in a microaerophilic atmosphere at 37° C., the diameter of the zone of inhibition was measured (Glupczynsky, 1996; McNulty et al., 2002).

Experiment [2] relates to H. pylori. The experiment is described as follows: Anti H. pylori spectrum (MIC) by agar dilution method. The note with it: Helicobacter pylori; for MIC50: MIC against 50% of the strains of the panel, read-out: MIC50. As for the experimental part:
MIC was determined using agar dilution assay following the CLSI® guidelines. Six clinical isolates and four standard strains were used for this study. Five microlitre of freshly grown 3-day old culture (˜1×10^8 CFU/mL) was streaked in plates containing 2-fold serial dilution of the compounds ranging […], and incubated under microaerophilic condition at 37° C. After 72 h, the plates were inspected visually for absence of growth to assess the MIC values. The experiment was performed in duplicates. MIC50 is defined as the dose (μg/ml) required for killing 50% of the strains.
Plates contained two-fold serial dilutions of the compounds ranging from […]. Five microlitres of 3-day old freshly grown H. pylori culture (^˜10^8 CFU/mL) was inoculated onto drug-containing BHI agar plates supplemented with 7% FCS, 0.5% IsoVitalex and 0.0025% DENT®, which were then incubated for 3 days under microaerophilic condition at 37° C.
(In agar dilution the substance is mixed into plates at graded concentrations.)

Experiment [3] deals with H. pylori. The experiment is described as follows: Time kill kinetic analyses in biphasic culture. As to conditions: HP001.
The subject of experiment [4] is H. pylori. The experiment is described as follows: MIC and MBC by microbroth dilution assay. As to conditions: Helicobacter pylori. As for the experimental part:
The compounds, serially diluted ([…]) in Muller Hinton broth containing 5% FCS, were incubated in 96-well microtitre plate containing fresh cultures of HP001 (˜5.5×10^6 CFU/mL) or ATCC® 43504 (2.65×10^6 CFU/ml) in a final volume of […]. After 72-h of incubation under microaerophilic condition at 37° C., […] of cultures wherein no growth had been detected were streaked on fresh brain heart infusion agar plates for MBC determination.
In microbroth dilution assay employing one clinical and one standard strain, both the bacteriostatic and the bactericidal values were determined for all four compounds as well as for clarithromycin (Table 4). Two-fold serial dilutions were prepared in 96-well microtitre plate containing a total volume of 0.1 mL Mueller Hinton broth supplemented with 5% FCS. A 3-day old liquid culture was diluted 10 times in Mueller Hinton broth and 0.1 mL of these cultures was inoculated into each well to give a final concentration of ˜10^6 CFU/mL. The plates were incubated for 3 days in a microaerophilic atmosphere at 37° C. Following incubation, the plates were examined visually, and the lowest concentration showing complete inhibition of growth was recorded as the MIC of the respective compound (Hachem et al., 1996). Aliquots (0.1 mL) of 72-h culture in which no growth had been detected were taken from the wells of the above microtitre plates and used to streak on fresh BHI agar plates.

[5] abbreviates: 72 h, panel of 6 clinical isolates and 4 standard strains, read-out: MIC Range.
The mark [6] stands for this setting: clinical strain HP001, read-out: MIC.
[7] abbreviates: clinical strain HP002, read-out: MIC.
The mark [8] stands for this setting: clinical strain HP003, read-out: MIC.
[9] abbreviates: clinical strain HP004, read-out: MIC.
Setting [10] is: clinical strain HP005, read-out: MIC.
The mark [11] stands for this setting: clinical strain HP006, read-out: MIC.
[12] abbreviates: standard strain 43504, read-out: MIC.
Setting [13] is: standard strain 43629, read-out: MIC.
Setting [14] is: standard strain 49503, read-out: MIC.
[15] abbreviates: standard strain 700392, read-out: MIC.
Where [16] appears, read: ATCC43504, microbroth dilution, ATCC 43504.

Structures are written as SMILES. ≈ marks a conversion by molar mass, not a printed value. Read-outs that look alike come from different tables or passages of the source.

Turning to `CC[C@H]1OC(=O)[C@H](C)[C@@H](O[C@H]2C[C@@](C)(OC)[C@@H](O)[C@H](C)O2)[C@H](C)[C@@H](O[C@@H]2O[C@H](C)C[C@H](N(C)C)[C@H]2O)[C@](C)(OC)C[C@@H](C)C(=O)[C@H](C)[C@@H](O)[C@]1(C)O` [Clarithromycin, reference compound], the inhibition zone with H. pylori [1] (strain 43504, 0.04 mg/disc) was 20 mm; in the experiment with H. pylori [1] (strain 49503, 0.005 mg/disc), 15 mm; in the experiment on H. pylori [1] (strain 700392, 0.4 mg/disc), 28 mm; with H. pylori [1] (strains HP001 and HP002, 0.01 mg/disc) it was 18 mm. The minimal inhibitory concentration (MIC) (in general, the smallest concentration in the dilution series that meets the test's criterion for growth inhibition) was 0.016 to 0.1 µg/mL (≈ 0.0214 to 0.134 µM) in the experiment with H. pylori [2] (setting [5]); 0.016 µg/mL (≈ 0.0214 µM) in the experiment on H. pylori [2] (setting [6]); 0.032 µg/mL (≈ 0.0428 µM) in the experiment on H. pylori [2] (setting [7]); under 0.02 µg/mL in the experiment with H. pylori [2] (setting [8]); 0.04 µg/mL (≈ 0.0535 µM) in the experiment with H. pylori [2] (setting [9]); 0.08 µg/mL (≈ 0.107 µM) in the experiment on H. pylori [2] (setting [10]). Moreover, the minimum inhibitory concentration (MIC) worked out at 0.08 µg/mL (≈ 0.107 µM) in the experiment on H. pylori [2] (setting [11]); 0.032 µg/mL (≈ 0.0428 µM) in the experiment with H. pylori [2] (setting [12]); 0.1 µg/mL (≈ 0.134 µM) in the experiment with H. pylori [2] (setting [13]); 0.016 µg/mL (≈ 0.0214 µM) with H. pylori [2] (setting [14]); 0.064 µg/mL (≈ 0.0856 µM) in the experiment with H. pylori [2] (setting [15]); 0.04 µg/mL (≈ 0.0535 µM) against H. pylori [4] (setting [16]). In addition, the lowest concentration to inhibit growth with H. pylori [4] (microbroth dilution, HP001) (MIC) was 0.01 µg/mL (≈ 0.0134 µM). Besides, the MIC50 (in general, the lowest concentration that inhibits either 50% of growth or 50% of the strains tested, depending on the study) in the experiment on H. pylori [2] was 0.032 µg/mL (≈ 0.0428 µM). The “decrease in cell count” value in the experiment with H. pylori [3] (at around 9 h) is on record as 1 log. Further, the “time at which killing/inhibition became evident” value in the experiment on H. pylori [3] (biphasic culture) is “around 9 h”. Besides, the minimal bactericidal concentration (MBC) (as a rule, the lowest tested concentration that kills the bacteria rather than only halting them) turned out to be 0.08 µg/mL (≈ 0.107 µM) against H. pylori [4] (setting [16]) and 0.04 µg/mL (≈ 0.0535 µM) in the experiment on H. pylori [4] (microbroth dilution, HP001).

Take `CN1CCN(CCCCOc2cc(O)c3c(=O)cc(-c4ccccc4)oc3c2)CC1` [NMC-3, 5-Hydroxy-7-[4-(4-methyl-piperazin-1-yl)-butoxy]-2-phenyl-chromen-4-one]: the “Inhibition zone diameter (score)” value with H. pylori [1] (ATCC standard strain 43504) is reported as “+ (Inhibition zone diameter ranging 10-20 mm was given a score of ^+)”; in the experiment on H. pylori [1] (ATCC standard strain 49503) it was “+ (Inhibition zone diameter ranging 10-20 mm was given a score of ^+)”; in the experiment with H. pylori [1] (ATCC standard strain 700392), “+ (Inhibition zone diameter ranging 10-20 mm was given a score of ^+)”; in the experiment on H. pylori [1] (clinical strain HP001) it was “+ (Inhibition zone diameter ranging 10-20 mm was given a score of ^+)”; in the experiment with H. pylori [1] (clinical strain HP002), “++ (20-30 mm as ^++)”. In addition, the MIC50 is about 25 µg/mL (≈ 61.2 µM) with H. pylori [2] (72 h) and 25 µg/mL (≈ 61.2 µM) in the experiment with H. pylori [2]. Also, the MIC in the experiment with H. pylori [2] (setting [5]) is 6.25 to 25 µg/mL (≈ 15.3 to 61.2 µM); in the experiment with H. pylori [2] (setting [6]), 25 µg/mL (≈ 61.2 µM); in the experiment on H. pylori [2] (setting [7]), 25 µg/mL (≈ 61.2 µM); in the experiment with H. pylori [2] (setting [8]), under 12.5 µg/mL; in the experiment on H. pylori [2] (setting [9]), under 12.5 µg/mL; in the experiment with H. pylori [2] (setting [10]) it was under 12.5 µg/mL. The minimum inhibitory concentration (MIC) was under 12.5 µg/mL in the experiment on H. pylori [2] (setting [11]); 25 µg/mL (≈ 61.2 µM) in the experiment on H. pylori [2] (setting [12]); 25 µg/mL (≈ 61.2 µM) in the experiment on H. pylori [2] (setting [13]); 25 µg/mL (≈ 61.2 µM) in the experiment with H. pylori [2] (setting [14]); 25 µg/mL (≈ 61.2 µM) in the experiment on H. pylori [2] (setting [15]).

Regarding `CCCOc1ccc2c(=O)cc(-c3ccccc3)oc2c1` [reference compound], the “Inhibition Zone Diameter (mm)” value with H. pylori [1] (ATCC 43504) and in the experiment on H. pylori [1] (HP001) was “Nil (‘Nil’ means zone of inhibition below 10 mm.)” each time. The MIC is over 400 µg/mL against H. pylori [4] (setting [16]) and over 400 µg/mL with H. pylori [4] (microbroth dilution, HP001).

With `CCCN1CCOCC1` [reference compound], the “Inhibition Zone Diameter (mm)” value in the experiment on H. pylori [1] (ATCC 43504) and in the experiment with H. pylori [1] (HP001) was “Nil (‘Nil’ means zone of inhibition below 10 mm.)” in each case. Also, the MIC is over 400 µg/mL against H. pylori [4] (setting [16]) and over 400 µg/mL against H. pylori [4] (microbroth dilution, HP001).

With `COCCCN1CCOCC1` [reference compound], the “Inhibition Zone Diameter (mm)” value with H. pylori [1] (ATCC 43504) and with H. pylori [1] (HP001) was “Nil (‘Nil’ means zone of inhibition below 10 mm.)” throughout. Besides, the MIC in the experiment on H. pylori [4] (setting [16]) was over 400 µg/mL; in the experiment with H. pylori [4] (microbroth dilution, HP001), over 400 µg/mL.

For the compound `CCCN1CCN(C)CC1` [reference compound], the “Inhibition Zone Diameter (mm)” value in the experiment with H. pylori [1] (ATCC 43504) and in the experiment on H. pylori [1] (HP001) was “Nil (‘Nil’ means zone of inhibition below 10 mm.)” throughout. In addition, the MIC against H. pylori [4] (setting [16]) is over 400 µg/mL; against H. pylori [4] (microbroth dilution, HP001), over 400 µg/mL.

On to `CCCN1CCCCC1` [reference compound], for which the “Inhibition Zone Diameter (mm)” value in the experiment on H. pylori [1] (ATCC 43504) and in the experiment on H. pylori [1] (HP001) was “Nil (‘Nil’ means zone of inhibition below 10 mm.)” throughout. The minimal inhibitory concentration (MIC) against H. pylori [4] (setting [16]) is over 400 µg/mL; with H. pylori [4] (microbroth dilution, HP001), over 400 µg/mL.

These data come from US9642854B2, “Flavanoid compounds and process for preparation thereof” (Council of Scientific & Industrial Research, priority 2009, dated 2017).
